From the supplement of paper PMC4954754 come the findings set out here.

± gives the uncertainty stated by the source.

What all share (details): 18 h
Test [1] concerns HEK293T-Rex ERSE-FLuc. Put plainly: maximal ERSE-FLuc activation from dose-response fit, relative to thapsigargin (% of thapsigargin); higher = stronger activation. The method, then:
(§1)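 Dose-response of hit compounds in HEK293T-Rex cells stably expressing ERSE-FLuc or XBP1-RLuc reporters, 18 hr treatment, 1536-well; luminescence normalised to 500 nM thapsigargin (100%) and DMSO (0%), fitted to give EC50 (M) and maximal activation; '>' marks EC50 above the top tested dose (~17 µM).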

Test [2] deals with HEK293T-Rex XBP1-RLuc. Put plainly: EC50 for XBP1-RLuc reporter activation. The method, then: as §1
Test [3] concerns HEK293T-Rex ERSE-FLuc. Put plainly: EC50 for ERSE-FLuc reporter activation. The method, then: as §1
Test [4] deals with HEK293T-Rex XBP1-RLuc. Put plainly: maximal XBP1-RLuc activation from dose-response fit, relative to thapsigargin (% of thapsigargin); higher = stronger activation. The method, then: as §1

For `CNc1ccc2oc(C[C@H]3O[C@@]4(CC[C@H]3C)O[C@H]([C@H](C)C(=O)c3ccc[nH]3)[C@H](C)C[C@H]4C)nc2c1C(=O)O`, the “maximal ERSE-FLuc activation” value in test [1] came out at 56.9 ± 16. In addition, the “EC50 for XBP1-RLuc reporter activation” value in test [2] was 4.49 µM. In test [3], the “EC50 for ERSE-FLuc reporter activation” value worked out at 2.39 µM. In addition, the “maximal XBP1-RLuc activation” value in test [4] worked out at 91.4 ± 5.9.

For `Nc1ccccc1NC(=O)c1ccc(Cl)cc1`, in test [1], the “maximal ERSE-FLuc activation” value was found to be 82.8 ± 4.7. In addition, the “EC50 for XBP1-RLuc reporter activation” value in test [2] was more than 17.2 µM. Further, the “EC50 for ERSE-FLuc reporter activation” value in test [3] was determined as 7.9 µM. The “maximal XBP1-RLuc activation” value in test [4] is 34.9 ± 0.91.

On to `Cn1c(-c2cccc(Cl)c2)cnc1NC(=O)c1ccccc1`, for which the “maximal ERSE-FLuc activation” value in test [1] stood at 23.6 ± 2.5. Moreover, the “EC50 for XBP1-RLuc reporter activation” value in test [2] is more than 16.9 µM. In addition, the “EC50 for ERSE-FLuc reporter activation” value in test [3] is more than 16.9 µM. Besides, the “maximal XBP1-RLuc activation” value in test [4] was 8.33 ± 5.9.

In the case of `CCOc1cc(/C=C2/NC(=O)N(Cc3ccc(F)cc3)C2=O)ccc1O`, in test [1], the “maximal ERSE-FLuc activation” value was found to be 36.3 ± 4.1. Further, the “EC50 for XBP1-RLuc reporter activation” value in test [2] was found to be 11.9 µM. The “EC50 for ERSE-FLuc reporter activation” value in test [3] was more than 16.9 µM. The “maximal XBP1-RLuc activation” value in test [4] amounted to 56.8 ± 0.68.

For the compound `Cc1ccc(C(=O)Nc2ccccc2N)cc1`, the “maximal ERSE-FLuc activation” value in test [1] was determined as 137 ± 15. The “EC50 for XBP1-RLuc reporter activation” value in test [2] is more than 14.7 µM. Besides, the “EC50 for ERSE-FLuc reporter activation” value in test [3] was 4.27 µM. The “maximal XBP1-RLuc activation” value in test [4] was 42.2 ± 2.2.

In the case of `N#Cc1c(NC(=O)c2ccc(Br)cc2)sc2c1CCCC2`, the “maximal ERSE-FLuc activation” value in test [1] came out at 17.3 ± 2.2. Moreover, the “EC50 for XBP1-RLuc reporter activation” value in test [2] was more than 12.7 µM. Besides, the “EC50 for ERSE-FLuc reporter activation” value in test [3] is more than 12.7 µM. Further, in test [4], the “maximal XBP1-RLuc activation” value is 1.87 ± 3.4.

Take `Nc1ccc2nc(-c3cc(Cl)c(N)c(Cl)c3)[nH]c2c1`: in test [1], the “maximal ERSE-FLuc activation” value amounted to 22.7 ± 10. Further, the “EC50 for XBP1-RLuc reporter activation” value in test [2] was more than 13 µM. Moreover, the “EC50 for ERSE-FLuc reporter activation” value in test [3] is more than 13 µM. In addition, in test [4], the “maximal XBP1-RLuc activation” value turned out to be 13.1 ± 1.1.

For the compound `Cc1ccc(/C=C(\C#N)C(=O)Nc2cccc(Cl)c2)o1`, in test [1], the “maximal ERSE-FLuc activation” value was found to be 14.7 ± 3.1. Besides, the “EC50 for XBP1-RLuc reporter activation” value in test [2] is more than 16.9 µM. In test [3], the “EC50 for ERSE-FLuc reporter activation” value is more than 16.9 µM. For the same compound, the “maximal XBP1-RLuc activation” value in test [4] was 3.54 ± 1.9.

On to `O=[N+]([O-])c1ccc2nc(/C=C/c3ccccc3)[nH]c2c1`, for which the “maximal ERSE-FLuc activation” value in test [1] turned out to be 23.7 ± 12. In test [2], the “EC50 for XBP1-RLuc reporter activation” value was more than 16.9 µM. The “EC50 for ERSE-FLuc reporter activation” value in test [3] is more than 16.9 µM. Moreover, the “maximal XBP1-RLuc activation” value in test [4] came out at 3.13 ± 2.4.

On to `Cc1ccc(O)c(NC(=O)CCc2ccccc2)c1`, for which, in test [1], the “maximal ERSE-FLuc activation” value came to 107 ± 12. For the same compound, the “EC50 for XBP1-RLuc reporter activation” value in test [2] was more than 16.9 µM. Also, the “EC50 for ERSE-FLuc reporter activation” value in test [3] came to 4.16 µM. Moreover, the “maximal XBP1-RLuc activation” value in test [4] is 26.1 ± 0.67.

As for `O=C(N/N=C\c1ccccc1[N+](=O)[O-])c1[nH]nc2c1CCc1ccccc1-2`, the “maximal ERSE-FLuc activation” value in test [1] came out at 23 ± 4.3. For the same compound, the “EC50 for XBP1-RLuc reporter activation” value in test [2] is more than 16.9 µM. Moreover, in test [3], the “EC50 for ERSE-FLuc reporter activation” value is more than 16.9 µM. Besides, the “maximal XBP1-RLuc activation” value in test [4] amounted to 5.31 ± 2.3.

With `Oc1ccc(-c2csc(-c3cccnc3)n2)cc1O`, the “maximal ERSE-FLuc activation” value in test [1] turned out to be 71.5 ± 11. In addition, the “EC50 for XBP1-RLuc reporter activation” value in test [2] was found to be 12.8 µM. For the same compound, the “EC50 for ERSE-FLuc reporter activation” value in test [3] was 7.5 µM. In test [4], the “maximal XBP1-RLuc activation” value amounted to 80.1 ± 5.1.

Consider `COC(=O)c1ccc(C(=O)Nc2ccccc2N)cc1`, for which the “maximal ERSE-FLuc activation” value in test [1] is 91.1 ± 14. The “EC50 for XBP1-RLuc reporter activation” value in test [2] was more than 17.8 µM. Further, in test [3], the “EC50 for ERSE-FLuc reporter activation” value is 9.08 µM. Besides, in test [4], the “maximal XBP1-RLuc activation” value was 28 ± 2.5.

Consider `Oc1ccc(-c2cnc3c(Nc4ccc5[nH]ccc5c4)nccn23)cc1`, for which the “maximal ERSE-FLuc activation” value in test [1] came out at 21.4 ± 3.8. In addition, the “EC50 for XBP1-RLuc reporter activation” value in test [2] is more than 16.9 µM. Moreover, the “EC50 for ERSE-FLuc reporter activation” value in test [3] was more than 16.9 µM. For the same compound, the “maximal XBP1-RLuc activation” value in test [4] is 37.8 ± 9.5.

Consider `O=C1/C(=C/c2ccc(O)c(O)c2)Oc2cc(O)ccc21`, for which the “maximal ERSE-FLuc activation” value in test [1] is 46.2 ± 4.5. Besides, in test [2], the “EC50 for XBP1-RLuc reporter activation” value is more than 16.9 µM. The “EC50 for ERSE-FLuc reporter activation” value in test [3] is more than 16.9 µM. Also, in test [4], the “maximal XBP1-RLuc activation” value came to 24.1 ± 2.3.

As for `Nc1ccc2nc(-c3ccc(Br)cc3)[nH]c2c1`, in test [1], the “maximal ERSE-FLuc activation” value came out at 74.6 ± 19. Moreover, the “EC50 for XBP1-RLuc reporter activation” value in test [2] amounted to 17.3 µM. The “EC50 for ERSE-FLuc reporter activation” value in test [3] amounted to 12.5 µM. For the same compound, the “maximal XBP1-RLuc activation” value in test [4] came out at 51.4 ± 4.2.

As to `O=[N+]([O-])c1ccc(/C=C/c2ccc(O)cc2)cc1`, the “maximal ERSE-FLuc activation” value in test [1] came to 25.8 ± 4.6. Moreover, in test [2], the “EC50 for XBP1-RLuc reporter activation” value was 12.4 µM. Also, the “EC50 for ERSE-FLuc reporter activation” value in test [3] was more than 15.3 µM. In addition, in test [4], the “maximal XBP1-RLuc activation” value was found to be 53.3 ± 4.7.

As for `O=C(/C=C/c1ccccc1)Nc1ccc(Cl)cn1`, the “maximal ERSE-FLuc activation” value in test [1] amounted to 22.1 ± 7. Further, in test [2], the “EC50 for XBP1-RLuc reporter activation” value was more than 18.6 µM. In addition, the “EC50 for ERSE-FLuc reporter activation” value in test [3] is more than 18.6 µM. In test [4], the “maximal XBP1-RLuc activation” value stood at 2.19 ± 0.65.

Consider `COc1ccc(-c2cc(C(=O)Nc3cc(C)ccc3O)on2)cc1OC`, for which, in test [1], the “maximal ERSE-FLuc activation” value stood at 29.1 ± 5.3. Moreover, in test [2], the “EC50 for XBP1-RLuc reporter activation” value is more than 16.9 µM. Moreover, in test [3], the “EC50 for ERSE-FLuc reporter activation” value is more than 16.9 µM. Besides, the “maximal XBP1-RLuc activation” value in test [4] was determined as 9.55 ± 5.6.
